1 compound from patent publication US6121512A, “Cytochrome P-450 constructs and method of producing herbicide-resistant transgenic plants” (North Carolina State University, priority 1997, dated 2000) can be followed below.

The data set concerns excised leaves of control tobacco plants transformed with pBI121. The experiment in a line: In vivo herbicide metabolism assay, excised leaves of control tobacco. The settings on record: after 14 hours; 1.2 nmol herbicide; standard error in parentheses; three pBI121 control plants. Also noted: species or system Nicotiana tabacum cv SR1. Here is the method: Seeds from primary transgenic tobacco plants transformed with CYP71A10 and control plants transformed with the pBI121 vector were grown in Petri dishes containing MS salts and 100 μg/ml kanamycin. At five weeks post-seeding, kanamycin-resistant plantlets were transplanted into pots containing soil and grown an additional two weeks. Single leaves of approximately 10 cm^2 in size were excised and their petioles inserted into 100 μl of H2 O containing radiolabeled herbicide. The leaves were placed in a growth chamber maintaining a temperature of 27° C. and incubated until the entire volume of the herbicide solution was drawn up by the transpirational stream of the leaves (about 3 hrs). The leaves were subsequently transferred into an Eppendorf tube containing distilled water and further incubated for a total of 14 hours.
[^14 C]-labeled herbicide was extracted from the leaves by grinding for 5 minutes in 250 μl methanol with a plastic pellet pestle driven by an electric drill. After centrifugation for 3 minutes at 14,000 g, 75μl of the supernatant was spotted on a Whatman K6F silica plate and developed in a solvent system containing chloroforn/ethanol/acetic acid 135:10:15 (v/v/v). The separated herbicide derivatives were visualized using an imaging scanner. Substrate conversion was quantified based on the amount of herbicide absorbed, and the ratios of the parent compound and the produced metabolites determined from the TLC profiles.

Regarding `Cc1ccc(NC(=O)N(C)C)cc1Cl` [Chlortoluron, chlortoluron], the “% of herbicide metabolized, Control” value is 39 (7.5) %.
